Data published in paper PMC3584946, “Three-component synthesis of pyrano[2,3-d]-pyrimidine dione derivatives facilitated by sulfonic acid nanoporous silica (SBA-Pr-SO3H) and their docking and urease inhibitory activity” (DARU Journal of Pharmaceutical Sciences, 2013).
Like-named read-outs stand apart in the source and are kept apart here.

Target: Jack bean urease (Canavalia ensiformis, UniProt P07374)
Experiment: phenol red urease assay, […] nm
Assay type: biochemical
[1] = 100 mM urea, 10 mM phosphate pH 7.0, 37°C, 30 min, read-out: IC50

Sequence of Jack bean urease (P07374 whole entry): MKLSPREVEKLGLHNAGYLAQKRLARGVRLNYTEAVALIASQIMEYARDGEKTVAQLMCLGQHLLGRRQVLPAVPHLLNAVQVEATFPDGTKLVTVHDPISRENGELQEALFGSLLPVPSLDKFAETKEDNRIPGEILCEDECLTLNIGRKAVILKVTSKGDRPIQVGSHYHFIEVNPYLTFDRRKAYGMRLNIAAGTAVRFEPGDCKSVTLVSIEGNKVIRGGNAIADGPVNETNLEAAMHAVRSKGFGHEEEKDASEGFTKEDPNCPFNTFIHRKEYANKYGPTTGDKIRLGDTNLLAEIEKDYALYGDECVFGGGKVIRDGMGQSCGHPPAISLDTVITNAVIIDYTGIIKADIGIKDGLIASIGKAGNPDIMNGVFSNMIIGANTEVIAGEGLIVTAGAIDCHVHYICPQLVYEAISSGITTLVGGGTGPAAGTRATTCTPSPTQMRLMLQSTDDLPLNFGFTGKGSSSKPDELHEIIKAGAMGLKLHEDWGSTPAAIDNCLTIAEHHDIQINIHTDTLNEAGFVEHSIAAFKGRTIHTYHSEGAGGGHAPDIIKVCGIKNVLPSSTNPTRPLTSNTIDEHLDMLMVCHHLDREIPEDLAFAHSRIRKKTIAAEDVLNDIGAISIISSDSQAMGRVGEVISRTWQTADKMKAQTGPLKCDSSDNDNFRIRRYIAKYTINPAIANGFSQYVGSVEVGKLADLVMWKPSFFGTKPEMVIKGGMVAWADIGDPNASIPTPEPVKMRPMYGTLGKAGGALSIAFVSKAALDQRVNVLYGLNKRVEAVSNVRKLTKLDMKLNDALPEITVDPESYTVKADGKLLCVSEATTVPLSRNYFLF

Cc1cccc(C2C(C#N)=C(N)Oc3[nH]c(=O)[nH]c(=O)c32)c1 (stereo not drawn) [4f, 7-Amino-6-cyano-5-(3-methylphenyl)-5H-pyrano[2,3-d]pyrimidine-2,4(1H,3H)-diones]
IC50 [1]: 41.1 µM

COc1cccc(C2C(C#N)=C(N)Oc3[nH]c(=O)[nH]c(=O)c32)c1 (stereo not drawn) [4h, 7-Amino-6-cyano-5-(3-methoxylphenyl)-5H-pyrano[2,3-d]pyrimidine-2,4(1H,3H)-diones]
IC50: 106 µM

N#CC1=C(N)Oc2[nH]c(=O)[nH]c(=O)c2C1c1c(Cl)cccc1Cl (stereo not drawn) [4k, 7-Amino-6-cyano-5-(2,6-dichlorophenyl)-5H-pyrano[2,3-d]pyrimidinone]
IC50 [1]: 41 µM
